In US12274703B2, “Compositions and methods of treatment for neurological disorders comprising a dementia” (Gliapharm SA, priority 2017, dated 2025):

What was measured:
primary astrocytes = experiment: Intracellular glycogen quantification, Example 2; type: cell-based, mouse; details: 10 μM, 3 h (GP-0157: 0.1, 1, 10 μM)
Description: Primary cultures of cerebrocortical astrocytes were obtained from 1 to 2-day-old OF1 mouse pups (Charles River). Briefly, cortices were isolated and minced in small pieces under a dissecting microscope. The cells were incubated for 30 min at 37° C. in a solution containing 20 U/ml papain, 1 mM L-cysteine and 10 kU/ml DNase I. After dissociation, papain activity was stopped by the addition of fetal calf serum (FCS). Single-cell suspension was then obtained by mechanical dissociation, which consisted in cells trituration in a DMEM D7777 medium supplemented with 44 mm NaHCO3, 10 ml/L antibiotic/antimycotic solution and 10% FCS. The cells were seeded at an average density of ˜10,000 cells/cm2 on poly-D-lysine coated 96- or 12-well culture plates, depending on their use, and grown in DMEM D7777 medium supplemented with 44 mm NaHCO3, 10 ml/L antibiotic/antimycotic solution and 10% FCS at 37° C. in a humidified atmosphere containing 5% CO2/95% air. Culture medium was renewed twice a week. Cells were stimulated and harvested between DIV14 and DIV17, when confluence and cell growth were optimal.
Astrocytes grown on 12-well plates were used for intracellular glycogen quantifications. Cells were stimulated with Vehicle (DMSO), with compounds of the invention (10 μM), or with a positive control for 180 min, at 37° C. 5% CO2/95% air in D5030 medium complemented with 5 mM D-glucose and 44 mM sodium bicarbonate (pH 7.2). […] At the end of the stimulation, medium was removed and replaced with 600 μl of 30 mM Tris HCl, and stored at −20° C.
First, the amount of proteins in each sample was quantified to assess whether harvested astrocytes from primary cell cultures yielded enough and equivalent amounts of proteins on each replicates. Proteins were quantified using the micro BCA Protein Assay kit (Thermo Scientific), according to manufacturer's instructions. Next, intracellular glycogen concentrations were quantified using a 250 μl-aliquot of the same stimulated, thawed, and sonicated cell lysate. After an incubation period of 30 min at 90° C. and 400 rpm, 28 μl of a 0.1M acetic acid/sodium acetate buffer (pH 4.6) was added to each lysate aliquots, which were then separated in two. Each split aliquots received either 5 μl of amyloglucosidase or H2O, and incubated for 120 min at 37° C. After centrifugation at 16,000 G for 5 min, 20 μl of supernatant were placed in a 96-well plate, to which 150 μl of a mix containing 0.67 mM ATP, 0.67 mM NADP, 1.8% hexokinase/glucose-6-phosphate dehydrogenase in a 0.1M Tris Buffer-HCl/3.3 mM magnesium (pH 8.1) buffer was added. Fluorescence intensity (340 nm excitation/440 nm emission) was measured using a Safire 2 spectrophotometer. Glucose concentrations were assessed relative to a glucose standard curve, and glycogen concentrations were calculated by subtracting glucose values of samples that had received amyloglucosidase (i.e. that had degraded their glycogen stores) to samples that had not. Intracellular levels of glycogen, which is the main source of glucose storage in the brain, were analyzed in primary astrocytes after treatment with compounds of interest (10 μM, 3 h) (FIG. 5B), and compound GP-0157 (0.1, 1, 10 μM, 3 h) (FIG. 18).

astrocytes = experiment: Intracellular glycogen quantification; type: cell-based, mouse; details: CDC54K hits; 10 μM, 3 h
[1] = system: cerebral extracellular lactate; experiment: In vivo pharmacodynamics - lactate biosensors; design: species or system mouse; details: 100 mg/kg per os; AUC ratio vs vehicle
Description: Extracellular levels of lactate were monitored in vivo using lactate biosensors (Pinnacle Technology), according to the manufacturer's instructions. Cannulae were surgically implanted in mice cerebral motor cortex areas M1/M2 (coordinates: +1.94 mm (to bregma), lateral −1.4 mm (to mideline), ventral −1.0 mm (to dura)) 5-7 days before administration of the compounds. Drugs were administered per os as previously described, and cerebral levels of extracellular lactate were dynamically recorded for 6 hours. Mice were administered vehicle alone first, followed 3 hours later by vehicle or drug (10 or 100 mg/kg). Area Under the Curve (AUC) quantifying the fluctuations of extracellular lactate concentrations for each of the compound tested was calculated using Graphad Prism and the ratio of AUC after drug over Vehicle administration was calculated. Groups of 8 male mice were used for each condition.
To measure biological effect of lead molecules in vivo in the brain, lactate levels were quantified after administration of the drug by using lactate biosensors implanted in the cortex of freely moving mice.

Cc1ccccc1NC(=O)C1CCCN(c2ncnc3oc(C)c(C)c23)C1 (stereo not shown) [F228-0422]
Mobilization of intracellular glycogen (primary astrocytes): significantly enhance

COc1ccccc1[N+]1=C2CCCCCN2C(O)(c2ccc(C)cc2)C1 (stereo not shown) [K404-0834]
Mobilization of intracellular glycogen (primary astrocytes): significantly enhance

CCc1nc(-c2csc(S(=O)(=O)NCc3ccc4c(c3)OCO4)c2)no1 [L287-0468]
Mobilization of intracellular glycogen (primary astrocytes): significantly enhance

CCn1nccc1-c1csc(S(=O)(=O)Nc2ccc(Cl)cc2F)c1 [L924-1031]
Mobilization of intracellular glycogen (primary astrocytes): significantly enhance

CC(=O)N1CCc2sc(S(=O)(=O)N3CCN(c4ccccc4C)CC3)cc2C1 [P025-0159]
Glycogen (statistical significance of glycogen degradation) (astrocytes): ns | Mobilization of intracellular glycogen (primary astrocytes): significantly enhance | Cerebral lactate [1]: Significant increase

COc1ccc(Nc2nc(N3CCOCC3)c3ccccc3n2)cc1.Cl [T0508-5190]
Mobilization of intracellular glycogen (primary astrocytes): significantly enhance

c1ccc2c(c1)CCN(c1ncnc3sccc13)C2 [T0517-8250]
Glycogen (statistical significance of glycogen degradation) (astrocytes): ns | Mobilization of intracellular glycogen (primary astrocytes): significantly enhance

N#Cc1ccc(C(=O)N2CCC(Nc3ncnc4c3CCC4)C2)cc1 (stereo not shown) [T636-2387]
Glycogen (statistical significance of glycogen degradation) (astrocytes): ns | Mobilization of intracellular glycogen (primary astrocytes): significantly enhance | Cerebral lactate [1]: Significant increase

COc1cc(C)c(Cl)cc1S(=O)(=O)NCc1ccncc1 [T5580243]
Glycogen (statistical significance of glycogen degradation) (astrocytes): ns | Cerebral lactate [1]: Significant increase

O=C1CCCN1c1ccc(S(=O)(=O)Nc2cccc(/C=C/c3ccccn3)c2)cc1 [T5644989]
Mobilization of intracellular glycogen (primary astrocytes): significantly enhance

O=S(=O)(Nc1cc(F)cc(F)c1)c1ccc2ccccc2c1 [T5884038]
Mobilization of intracellular glycogen (primary astrocytes): significantly enhance

Cc1nc2ccc(NS(=O)(=O)c3cccc(F)c3)cc2s1 [T6937001]
Glycogen (statistical significance of glycogen degradation) (astrocytes): ns | Mobilization of intracellular glycogen (primary astrocytes): significantly enhance
